Counter-ions that a name gives are not always drawn.
Columns and labels:
recombinant human CXCR2 = molecular target: T1, recombinant human CXCR2 (Homo sapiens, UniProt P25025); assay: CXCR2 Tango assay; format: cell-based; conditions: mean pIC50 of multiple test results; stimulated with 80 nM hCXCL1; reporter gene blue/green emission ratio; read-out: pIC50 (CXCR2 Tango assay) (converted)
T1 construct: TEV protease site; Gal4-VP16 transcription factor
T1 sequence (P25025 1-360): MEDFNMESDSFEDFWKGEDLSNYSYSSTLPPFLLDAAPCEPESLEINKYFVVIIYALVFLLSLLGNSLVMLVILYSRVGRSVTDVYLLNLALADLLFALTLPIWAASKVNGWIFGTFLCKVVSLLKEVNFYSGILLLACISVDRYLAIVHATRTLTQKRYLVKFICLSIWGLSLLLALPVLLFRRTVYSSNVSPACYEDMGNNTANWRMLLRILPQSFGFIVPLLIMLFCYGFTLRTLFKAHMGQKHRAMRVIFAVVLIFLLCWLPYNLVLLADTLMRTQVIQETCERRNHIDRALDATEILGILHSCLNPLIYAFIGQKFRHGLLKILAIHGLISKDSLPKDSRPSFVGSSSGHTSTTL
Method in brief: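 Mean pIC50 comes from sigmoidal fits of the blue/green (460/530 nm) CCF4-AM ratio, normalized between hCXCL1-stimulated and DMSO controls. Compounds in 10-point dose response were incubated overnight at 37 °C with recombinant human CXCR2 Tango cells (~10,000/well) and 80 nM hCXCL1, with reporter read-out via arrestin-TEV release of Gal4-VP16.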

[1] = test system: upregulation of CD11b in GROα stimulated neutrophils in human whole blood; assay: Human whole blood assay (CD11b upregulation); format: cell-based; conditions: Neutrophil, inhibition of CD11b upregulation, GROα 33 nM final, flow cytometry, read-out: pIC50 (human whole blood assay) (converted)
Procedure: The whole blood assay tested the compounds' ability to inhibit the upregulation of CD11b in GROα stimulated neutrophils in human whole blood.
Blood was withdrawn by venipuncture from consented adults and poured into a Sterilin tube containing an anti-coagulant Heparin (10 uL/mL of blood). All the test compounds were dissolved in DMSO to 4 mM and serial diluted across the plate, 1 in 3 to provide 10 point dose response curves. The compounds were then diluted 100 fold in -PBS [Phosphate buffered saline (without Calcium Chloride and Magnesium Chloride)] after which, 1 uL was dispensed in 96 U bottom Costar plates using an FX.
10 uL of blood was transferred to the compound plate using a multi-channel pipette, gently tapped and incubated for 15 minutes, at 37° C. After 15 minutes, the stimulant GROα was diluted to 100 nM in 0.1% BSA (Albumin Bovine Serum)-PBS and 5 uL is dispensed across the whole plate for a final concentration of 33 nM. The plate was gently tapped and incubated further for 15 minutes at 37° C. The plate was placed on ice for 1 minute before addition of 10 uL of an antibody cocktail consisting of CD11b-FITC (40 ug/mL) purchased from BioLegend (address: Cambridge Bioscience, Munro House, Trafalgar Way, Bar Hill, Cambridge, UK) and CD16-PE purchased from BD Pharmingen (address: The Danby Building, Edmung Halley Road, Oxford Science Park, Oxford, UK) (stock concentration 100 tests, 2 mL stock volume is diluted 1 in 5). The plate was placed on ice for 1 hour in the dark. The cells were then fixed using 200 uL/well of 1×FACS (Flow Activated Cell Sorting) Lyse solution (Becton and Dickinson-BD) and on ice for 20 minutes in the dark. The plate was centrifuged at 1600 rpm for 5 minutes and re-suspended with 200 uL of ice cold PBS. This step was repeated twice and on the final step the plate was re-suspended with 50 uL of ice cold -PBS for flow Cytometric analysis.
Samples were run on a Becton and Dickinson (BD)-Acurri C6 Flow Cytometer using a HyperCyt sampling apparatus (IntelliCyt) with a flow rate 2 uL/sec. CD11b upregulation is monitored in neutrophils and identified using a combination of both side scatter and CD16 expression.

In the case of `CO[C@@H]1CCC[C@H]1S(=O)(=O)c1c(Cl)ccc(NC(=O)N[C@@H]2CCC=C2C)c1O` (racemic) [Compound 144, (±)trans-1-(4-chloro-2-hydroxy-3-((2-methoxycyclopent-yl)sulfonyl)phenyl)-3-((R)-2-methylcyclopent-2-en-1-yl)urea, trifluoroacetic acid salt], the IC50 (recombinant human CXCR2) is reported as ≤ 0.001 µM and the IC50 [1] is reported as 0.0251 to 2.51 µM.
With `CC(C)(C1COC1)S(=O)(=O)c1c(Cl)ccc(NC(=O)N[C@@H]2CCC=C2Cl)c1O` [Compound 5, (R)-1-(4-chloro-2-hydroxy-3-((2-(oxetan-3-yl)propan-2-yl)sulfonyl)phenyl)-3-(2-chlorocyclopent-2-en-1-yl)urea] the IC50 (recombinant human CXCR2) was ≤ 0.01 µM and the IC50 [1] was 0.0251 to 2.51 µM.
`CC1=CCCC1NC(=O)Nc1ccc(Cl)c(S(=O)(=O)C(C)C)c1O` (centres unmarked) [Compound 20, 1-(4-chloro-2-hydroxy-3-(isopropylsulfonyl)phenyl)-3-(2-methylcyclopent-2-en-1-yl)urea] was tested, and the IC50 (recombinant human CXCR2) was ≤ 0.001 µM and the IC50 [1] was 0.0251 to 2.51 µM.
`CC1=CCC[C@H]1NC(=O)Nc1ccc(Cl)c(S(=O)(=O)C(C)c2ccccn2)c1O` (stereo partly drawn) [Compound 23, 1-(4-chloro-2-hydroxy-3-((1-(pyridin-2-yl)ethyl)sulfonyl)phenyl)-3-((R)-2-methylcyclopent-2-en-1-yl)urea, trifluoroacetic acid salt] was tested, and the IC50 (recombinant human CXCR2) was ≤ 0.001 µM and the IC50 [1] was 0.0251 to 2.51 µM.
With `CC1=CCC[C@H]1NC(=O)Nc1ccc(Cl)c(S(=O)(=O)C(C)c2ncccn2)c1O` (stereo partly drawn) [Compound 27, 1-(4-chloro-2-hydroxy-3-((1-(pyrimidin-2-yl)ethyl)sulfonyl)phenyl)-3-((R)-2-methylcyclopent-2-en-1-yl)urea] the IC50 (recombinant human CXCR2) was ≤ 0.01 µM and the IC50 [1] was 0.0251 to 2.51 µM.
For `CC1(S(=O)(=O)c2c(Cl)ccc(NC(=O)N[C@H]3CCC=C3Cl)c2O)CCOCC1` [Compound 42, (S)-1-(4-chloro-2-hydroxy-3-((4-methyltetrahydro-2H-pyran-4-yl)sulfonyl)phenyl)-3-(2-chlorocyclopent-2-en-1-yl)urea], the IC50 [1] was 0.0251 to 2.51 µM.
In the case of `COCC(C)(C)S(=O)(=O)c1c(Cl)ccc(NC(=O)NC2CCC=C2Cl)c1O` (centres unmarked) [Compound 157, 1-(4-chloro-2-hydroxy-3-((1-methoxy-2-methylpropan-2-yl)sulfonyl)phenyl)-3-(2-chlorocyclopent-2-en-1-yl)urea], the IC50 (recombinant human CXCR2) is reported as ≤ 0.01 µM.
`COCCN1CCN(S(=O)(=O)c2c(Cl)ccc(NC(=O)NC3CCC=C3C)c2O)CC1` (centres unmarked) [Compound 161, 1-(4-chloro-2-hydroxy-3-((4-(2-methoxyethyl)piperazin-1-yl)sulfonyl)phenyl)-3-(2-methylcyclopent-2-en-1-yl)urea] was tested, and the IC50 (recombinant human CXCR2) was ≤ 0.01 µM.
For `O=C(Nc1ccc(Cl)c(S(=O)(=O)[C@H]2C[C@@H](O)C2)c1O)N[C@@H]1CCC=C1Cl` [Compound 162, 1-(4-chloro-2-hydroxy-3-((cis-3-hydroxycyclobutyl)sulfonyl)phenyl)-3-((R)-2-chlorocyclopent-2-en-1-yl)urea], the IC50 (recombinant human CXCR2) was ≤ 0.001 µM.
`O=C(Nc1ccc(Cl)c(S(=O)(=O)[C@H]2C[C@@H](O)C2)c1O)NC1C=CCC1` (stereo partly drawn) [Compound 164, 1-(4-chloro-2-hydroxy-3-((cis-3-hydroxycyclobutyl)sulfonyl)phenyl)-3-(cyclopent-2-en-1-yl)urea] was tested, and the IC50 (recombinant human CXCR2) was ≤ 0.01 µM.
In the case of `O=C(Nc1ccc(Cl)c(S(=O)(=O)[C@H]2CCOC2)c1O)N[C@@H]1CCC=C1Cl` [Compound 166, 1-(4-chloro-2-hydroxy-3-(((S)-tetrahydrofuran-3-yl)sulfonyl)phenyl)-3-((R)-2-chlorocyclopent-2-en-1-yl)urea], the IC50 (recombinant human CXCR2) is reported as ≤ 0.001 µM.
`O=C(Nc1ccc(Cl)c(S(=O)(=O)C2(F)CCOC2)c1O)N[C@@H]1CCC=C1Cl` (stereo partly drawn) [Compound 167, 1-(4-chloro-3-((3-fluorotetrahydro-furan-3-yl)sulfonyl)-2-hydroxyphenyl)-3-((R)-2-chlorocyclopent-2-en-1-yl)urea] was tested, and the IC50 (recombinant human CXCR2) was ≤ 0.001 µM.
In the case of `O=C(Nc1ccc(Cl)c(S(=O)(=O)C2(F)CCOCC2)c1O)N[C@@H]1CCC=C1Cl` [Compound 168, (R)-1-(4-chloro-3-((4-fluorotetrahydro-2H-pyran-4-yl)sulfonyl)-2-hydroxyphenyl)-3-(2-chlorocyclopent-2-en-1-yl)urea], the IC50 (recombinant human CXCR2) is reported as ≤ 0.001 µM.
In the case of `O=C(O)C(F)(F)F.[2H]C1(S(=O)(=O)c2c(Cl)ccc(NC(=O)N[C@@H]3CCC=C3Cl)c2O)CCN(C2CCC2)CC1` [Compound 169, (R)-1-(4-chloro-3-((1-cyclobutylpiperidin-4-yl)sulfonyl)-2-hydroxyphenyl)-3-(2-chlorocyclopent-2-en-1-yl)urea-d1, trifluoroacetic acid salt], the IC50 (recombinant human CXCR2) is reported as ≤ 0.001 µM.
For `O=C(Nc1ccc(Cl)c(S(=O)(=O)[C@H]2C[C@H](N3CCCC3)C2)c1O)NC1C=CCC1` (stereo partly drawn) [Compound 174, 1-(4-chloro-2-hydroxy-3-((trans-3-(pyrrolidin-1-yl)cyclobutyl)sul-fonyl)phenyl)-3-(cyclopent-2-en-1-yl)urea], the IC50 (recombinant human CXCR2) was ≤ 0.01 µM.
With `O=C(Nc1ccc(Cl)c(S(=O)(=O)[C@H]2CCOC2)c1O)NC1C=CCC1` (stereo partly drawn) [Compound 175, 1-(4-chloro-2-hydroxy-3-(((S)-tetrahydrofuran-3-yl)sulfonyl)phenyl)-3-(cyclopent-2-en-1-yl)urea] the IC50 (recombinant human CXCR2) was ≤ 0.01 µM.
For `O=C(Nc1ccc(Cl)c(S(=O)(=O)C2CCOCC2)c1O)NC1C=CCC1` (centres unmarked) [Compound 176, 1-(4-chloro-2-hydroxy-3-((tetrahydro-2H-pyran-4-yl)sulfonyl)phenyl)-3-(cyclopent-2-en-1-yl)urea], the IC50 (recombinant human CXCR2) was ≤ 0.01 µM.
For `O=C(Nc1ccc(Cl)c(S(=O)(=O)[C@H]2C[C@H](N3CCCC3)C2)c1O)NC1CCC=C1Cl` (stereo partly drawn) [Compound 177, 1-(4-chloro-2-hydroxy-3-((trans-3-(pyrrolidin-1-yl)cyclobutyl)sul-fonyl)phenyl)-3-(2-chlorocyclopent-2-en-1-yl)urea, trifluoroacetic acid salt], the IC50 (recombinant human CXCR2) was ≤ 0.01 µM.
`O=C(Nc1ccc(Cl)c(S(=O)(=O)[C@H]2CC[C@H](N3CCC3)CC2)c1O)NC1CCC=C1Cl` (stereo partly drawn) [Compound 178, 1-(3-((trans-4-(azetidin-1-yl)cyclohexyl)sul-fonyl)-4-chloro-2-hydroxyphenyl)-3-(2-chlorocyclopent-2-en-1-yl)urea, trifluoroacetic acid salt] was tested, and the IC50 (recombinant human CXCR2) was ≤ 0.01 µM.
`O=C(Nc1ccc(Cl)c(S(=O)(=O)[C@H]2CCOC2)c1O)NC1CCC=C1Cl` (stereo partly drawn) [Compound 179, 1-(4-chloro-2-hydroxy-3-(((S)-tetrahydrofuran-3-yl)sulfonyl)phenyl)-3-(2-chlorocyclopent-2-en-1-yl)urea] was tested, and the IC50 (recombinant human CXCR2) was ≤ 0.01 µM.
In the case of `O=C(Nc1ccc(Cl)c(S(=O)(=O)C2CCOCC2)c1O)NC1CCC=C1Cl` (centres unmarked) [Compound 180, 1-(4-chloro-2-hydroxy-3-((tetrahydro-2H-pyran-4-yl)sulfonyl)phenyl)-3-(2-chlorocyclopent-2-en-1-yl)urea], the IC50 (recombinant human CXCR2) is reported as ≤ 0.01 µM.
In the case of `CC1(S(=O)(=O)c2c(Cl)ccc(NC(=O)N[C@@H]3CCC=C3Cl)c2O)COC1` [Compound 181, (R)-1-(4-chloro-2-hydroxy-3-((3-methyloxetan-3-yl)sulfonyl)phenyl)-3-(2-chlorocyclopent-2-en-1-yl)urea], the IC50 (recombinant human CXCR2) is reported as > 10 µM.
For `[2H]C([2H])([2H])C1(S(=O)(=O)c2c(Cl)ccc(NC(=O)N[C@@H]3CCC=C3Cl)c2O)CCOC1` (stereo partly drawn) [Compound 183, 1-(4-chloro-2-hydroxy-3-((3-(d3-methyl)tetrahydro-furan-3-yl)sulfonyl)phenyl)-3-((R)-2-chlorocyclopent-2-en-1-yl)urea], the IC50 (recombinant human CXCR2) was ≤ 0.01 µM.
`CC1=CCC[C@H]1NC(=O)Nc1ccc(Cl)c(S(=O)(=O)[C@]2(C)CCOC2)c1O` [Compound 196, 1-(4-chloro-2-hydroxy-3-(((R)-3-methyltetrahydrofuran-3-yl)sulfonyl)phenyl)-3-((R)-2-methylcyclopent-2-en-1-yl)urea] was tested, and the IC50 (recombinant human CXCR2) was ≤ 0.01 µM.

From patent US10106515B2, “1-(cyclopent-2-en-1-yl)-3-(2-hydroxy-3-(arylsulfonyl)phenyl)urea derivatives as CXCR2 inhibitors” (GLAXOSMITHKLINE INTELLECTUAL PROPERTY DEVELOPMENT LIMITED, priority 2014, dated 2018)
